ChEMBL document CHEMBL3885861, “Open TG-GATES”

Species on record: Rattus norvegicus
Assay: Open TG-GATES - Regimen: Single
Type: toxicity, organism-based, Sprague-Dawley
Design: regimen Single, gender Male, age 6 weeks
Conditions: in vivo, po, 0 mg/kg, route gavage, dose level Control; for APTT / Bas / Eos / Fbg / Hb / Ht / Lym / MCH / MCHC / MCV / Mono / Neu / PT / Plat / RBC / Ret / WBC: tissue Blood; for KIDNEY_L / KIDNEY_R / KIDNEY_TOTAL: tissue Kidney; for LIVER: tissue Liver; for A/G / ALP / ALT / AST / BUN / CRE / Ca / Cl / DBIL / GLC / IP / K / LDH / Na / PL / RALB / TBIL / TC / TG / TP / gamma-GTP: tissue Plasma

SMILES: CN1C(=O)CCS(=O)(=O)C1c1ccc(Cl)cc1 (configuration not stated) [CHLORMEZANONE]
- TERMINAL_BW (3 h): 226.1 g
- APTT (3 h): 17 s
- Bas (3 h): 0%
- Eos (3 h): 0.8%
- Fbg (3 h): 315.6 mg/dL
- Hb (3 h): 13.7 g/dL
- Ht (3 h): 40.3%
- Lym (3 h): 80.4%
- MCH (3 h): 21.7 pg
- MCHC (3 h): 33.9%
- MCV (3 h): 64.1 fL
- Mono (3 h): 3%
- Neu (3 h): 15%
- PT (3 h): 13.1 s
- Plat (3 h): 122.7 x10_4/uL
- RBC (3 h): 629.8 x10_4/ul
- Ret (3 h): 7.8%
- WBC (3 h): 78.6 x10_2/uL
- KIDNEY_L (3 h): 1 g
- KIDNEY_R (3 h): 1 g
- KIDNEY_TOTAL (3 h): 2 g
- LIVER (3 h): 10.3 g
- A/G (3 h): 0.9
- ALP (3 h): 1820.8 IU/L
- ALT (3 h): 43.6 IU/L
- AST (3 h): 67.4 IU/L
- BUN (3 h): 10.2 mg/dL
- CRE (3 h): 0.1 mg/dL
- Ca (3 h): 11.5 mg/dL
- Cl (3 h): 106.2 meq/L
- DBIL (3 h): 0.036 mg/dL
- GLC (3 h): 182.2 mg/dL
- IP (3 h): 9.5 mg/dL
- K (3 h): 4.2 meq/L
- LDH (3 h): 58.2 IU/L
- Na (3 h): 140.2 meq/L
- PL (3 h): 145.2 mg/dL
- RALB (3 h): 2.7 g/dL
- TBIL (3 h): 0.044 mg/dL
- TC (3 h): 73.8 mg/dL
- TG (3 h): 108.2 mg/dL
- TP (3 h): 5.7 g/dL
- gamma-GTP (3 h): 1 IU/L
- TERMINAL_BW (6 h): 224.1 g
- APTT (6 h): 15.7 s
- Bas (6 h): 0%
- Eos (6 h): 1%
- Fbg (6 h): 310.2 mg/dL
- Hb (6 h): 13.7 g/dL
- Ht (6 h): 40.5%
- Lym (6 h): 75%
- MCH (6 h): 21.9 pg
- MCHC (6 h): 33.8%
- MCV (6 h): 65 fL
- Mono (6 h): 3.4%
- Neu (6 h): 19.8%
- PT (6 h): 13.2 s
- Plat (6 h): 113.5 x10_4/uL
- RBC (6 h): 622.8 x10_4/ul
- Ret (6 h): 7.8%
- WBC (6 h): 97 x10_2/uL
- KIDNEY_L (6 h): 0.9 g
- KIDNEY_R (6 h): 0.9 g
- KIDNEY_TOTAL (6 h): 1.8 g
- LIVER (6 h): 9.3 g
- A/G (6 h): 0.9
- ALP (6 h): 1407 IU/L
- ALT (6 h): 40.8 IU/L
- AST (6 h): 78 IU/L
- BUN (6 h): 10.4 mg/dL
- CRE (6 h): 0.2 mg/dL
- Ca (6 h): 11.6 mg/dL
- Cl (6 h): 107 meq/L
- DBIL (6 h): 0.02 mg/dL
- GLC (6 h): 180.2 mg/dL
- IP (6 h): 9.8 mg/dL
- K (6 h): 4.3 meq/L
- LDH (6 h): 57.8 IU/L
- Na (6 h): 141.8 meq/L
- PL (6 h): 145.6 mg/dL
- RALB (6 h): 2.7 g/dL
- TBIL (6 h): 0.04 mg/dL
- TC (6 h): 85.2 mg/dL
- TG (6 h): 54.4 mg/dL
- TP (6 h): 5.7 g/dL
- gamma-GTP (6 h): 1.4 IU/L
- TERMINAL_BW (9 h): 227.6 g
- APTT (9 h): 15.1 s
- Bas (9 h): 0%
- Eos (9 h): 1%
- Fbg (9 h): 331.4 mg/dL
- Hb (9 h): 13.4 g/dL
- Ht (9 h): 39.9%
- Lym (9 h): 74.4%
- MCH (9 h): 21.2 pg
- MCHC (9 h): 33.5%
- MCV (9 h): 63.1 fL
- Mono (9 h): 3.4%
- Neu (9 h): 20.6%
- PT (9 h): 13.2 s
- Plat (9 h): 116.8 x10_4/uL
- RBC (9 h): 631.4 x10_4/ul
- Ret (9 h): 7.5%
- WBC (9 h): 79.8 x10_2/uL
- KIDNEY_L (9 h): 0.9 g
- KIDNEY_R (9 h): 0.9 g
- KIDNEY_TOTAL (9 h): 1.8 g
- LIVER (9 h): 8.6 g
- A/G (9 h): 0.9
- ALP (9 h): 1793 IU/L
- ALT (9 h): 38.6 IU/L
- AST (9 h): 67.8 IU/L
- BUN (9 h): 10.8 mg/dL
- CRE (9 h): 0.2 mg/dL
- Ca (9 h): 11.1 mg/dL
- Cl (9 h): 105 meq/L
- DBIL (9 h): 0.022 mg/dL
- GLC (9 h): 192.6 mg/dL
- IP (9 h): 11.3 mg/dL
- K (9 h): 3.8 meq/L
- LDH (9 h): 51.4 IU/L
- Na (9 h): 143 meq/L
- PL (9 h): 132 mg/dL
- RALB (9 h): 2.6 g/dL
- TBIL (9 h): 0.044 mg/dL
- TC (9 h): 74.8 mg/dL
- TG (9 h): 52.6 mg/dL
- TP (9 h): 5.5 g/dL
- gamma-GTP (9 h): 1 IU/L
- TERMINAL_BW (24 h): 235.8 g
- APTT (24 h): 17.4 s
- Bas (24 h): 0.2%
- Eos (24 h): 0.8%
- Fbg (24 h): 283.8 mg/dL
- Hb (24 h): 13.4 g/dL
- Ht (24 h): 39.1%
- Lym (24 h): 78.8%
- MCH (24 h): 21.6 pg
- MCHC (24 h): 34.4%
- MCV (24 h): 62.9 fL
- Mono (24 h): 2.8%
- Neu (24 h): 17%
- PT (24 h): 13 s
- Plat (24 h): 115.7 x10_4/uL
- RBC (24 h): 621 x10_4/ul
- Ret (24 h): 7.2%
- WBC (24 h): 77.6 x10_2/uL
- KIDNEY_L (24 h): 1 g
- KIDNEY_R (24 h): 1 g
- KIDNEY_TOTAL (24 h): 2 g
- LIVER (24 h): 10.6 g
- A/G (24 h): 0.9
- ALP (24 h): 1848.2 IU/L
- ALT (24 h): 51.8 IU/L
- AST (24 h): 87 IU/L
- BUN (24 h): 16.4 mg/dL
- CRE (24 h): 0.2 mg/dL
- Ca (24 h): 11.5 mg/dL
- Cl (24 h): 105.2 meq/L
- DBIL (24 h): 0.022 mg/dL
- GLC (24 h): 193.4 mg/dL
- IP (24 h): 8.1 mg/dL
- K (24 h): 4.3 meq/L
- LDH (24 h): 69.4 IU/L
- Na (24 h): 142 meq/L
- PL (24 h): 141.6 mg/dL
- RALB (24 h): 2.7 g/dL
- TBIL (24 h): 0.028 mg/dL
- TC (24 h): 77.4 mg/dL
- TG (24 h): 91.8 mg/dL
- TP (24 h): 5.7 g/dL
- gamma-GTP (24 h): 1 IU/L
